Test results reported in patent US20060287353A1, “Method for preventing or treating ischemia-or hemorrhage-induced brain damage using a macrolide compound” (Astellas Pharma Inc., priority 1999, published 2006).

Columns and labels:
[1] = system: rat endothelin-induced MCA occlusion model; assay: Neuroprotective efficacy in the rat endothelin-induced MCA occlusion model (ET-1 model of stroke); assay type: in vivo; settings: five minutes post-lesion, male Sprague Dawley rats, damage assessed three days post-lesion
Protocol: Neuroprotective efficacy of the compound (I) in the rat endothelin-induced MCA occlusion model
The compound (I) was dissolved in a polyoxyethylene-hydrogenated castor oil 60/ethanol (400mg/1 ml) solution and administered at 1 and 3 mg.kg^−1. All drugs and relevant control were administered in a volume of 2 ml. kg^−1. MCA occlusion by the endothelin method was performed on male Sprague Dawley rats (271- 324g) as described in U.S. Pat. No. 5,648,351. All drugs were infused through the i.v. catheter at 1 ml min^−1, five minutes post-lesion. The animals were sacrificed by cardiac infusion under barbiturate anaesthesia. Volume of lesion was calculated from measured areas of damage (as assessed three days post-lesion) using the Trapezoid Rule. Results are presented as volume (mm^3)±SEM. Statistical analysis was performed using ANOVA and post hoc Student-Newman-Keuls test, where p<0.05 was set as an acceptable level for significance.

[2] = Immunosuppressive activity (statement, no method described); settings: stated in text without test details

**Q.** What does the source list for COC1CC(/C=C(\C)C2OC(=O)C3CCCCN3C(=O)C(=O)C3(O)OC(C(OC)CC(C)C/C(C)=C/C(CC(C)=O)C(=O)CC(O)C2C)C(OC)CC3C)CCC1O (stereo not drawn) [compound (I)]?
**A.** protection of the cortex (lesion volume) against vehicle ([1]; 1 mg.kg^-1 i.v., n=14): 61%; protection of the cortex (lesion volume) against vehicle ([1]; 3 mg.kg^-1 i.v., n=9): 42%; immunosuppressive activity [2]: no immunosuppressive activity
